Tests used:
TNF [1] = conditions: in vitro and in vivo; Solorzano et al. (1997); cited from earlier work
THP-1 cells [2] = experiment: Induction of TRRE by PMA stimulation, TRRE assay of supernatant; assay type: cell-based, human; conditions: for TRRE Activity (U/ml): THP-1, 10^−6 M PMA 30 min
THP-1 cells [3] = experiment: as above; assay type: cell-based, human
Method: THP-1 cells growing in logarithmic phase were collected and resuspended to 1×10^6 cells/ml of RPMI-1640 supplemented with 1% FCS and incubated with 10^−6 M PMA for 30 min in 5% CO2 at 37° C. The cells were collected and washed once with serum-free medium to remove PMA and resuspended in the same volume of RPMI-1640 with 1% FCS. After 2 hours incubation in 5% CO2 at 37° C., the cell suspension was collected, centrifuged, and the cell-free supernatant was collected as the TRRE-containing sample.
Briefly, C75R and COS-1 cells were seeded at 2.5×10^5 cells/ml/well in a 24-well culture plate and incubated in 5% CO2 at 37° C. for 12 to 16 hours. […] Simultaneously, C75R was incubated with 300 μl of fresh medium or buffer. At the end of the incubation period, the samples from each well were collected and the levels of soluble p75 TNF-R were measured by ELISA.
(§1) C75R cells and COS-1 cells were seeded into 24-well culture plates at a density of 2.5×10^5 cells/ml/well and incubated overnight (for 12 to 16 hours) in 5% CO2 at 37° C. […] (corresponding to A and C mentioned below, respectively). Simultaneously, C75R cells in 24-well plates were also incubated with 300 μl of fresh medium or buffer (corresponding to B mentioned below). The supernatants were collected, centrifuged, and then assayed for the concentration of soluble p75 TNF-R by ELISA as described above.
(§2) The stimulated cells were washed with serum-free medium and resuspended in the same volume of PMA-free medium with 1% FCS for 2 more hours in 5% CO2 at 37° C.
(§3) Suspension cell lines including THP-1, U-937, HL-60, Raji and K-562 at a density of 1×10^6 cells/ml were stimulated in RPMI-1640/1% FCS-with 10^−6 M PMA for 30 min in 5% CO2 at 37° C. After pelleting the cells and discarding the supernatants, the cells were washed once with serum-free medium and then incubated for 2 more hours at the same density of 1×10^6 cells/ml in PMA-free RPMI-1640/1% FCS. Adherent cell lines including ME-180 and MRC-5 were seeded in 100 mm cell culture plates with RPMI-1640/10% FCS-at a density of 6×10^6 cells/10 ml/plate in 5% CO2 at 37° C. overnight. After discarding the medium from the 100 mm plates, these adherent cells were stimulated in 6 ml of RPMI-1640/1% FCS with 10^−6 M PMA (at an approximate density of 1×10^6 cells/ml) for 30 min in 5% CO2 at 37° C. Following washing of the plates with serum-free medium 3 times, the cells were incubated for 2 more hours in 6 ml of PMA-free RPMI-1640/1% FCS.
THP-1 cells were stimulated with 10−6 M PMA in RPMI-1640 with 1% FCS for 30 min.
THP-1 cells at a density of 1×10^6 cells/ml were stimulated in 1% FCS-contained RPMI-1640 with 10^−6 M PMA for 30 min at 37° C. in 5% CO2. After washing the cells with serum-free medium to remove PMA, the cells were incubated in the same volume of 1% FCS-contained RPMI-1640 without PMA for 2 hours at 37° C. in 5% CO2. Then the cells were centrifuged down and the supernatant was collected for TRRE assay. These pelleted cells were again resuspended in 1% FCS-contained RPMI-1640 with or without 10^−6 M PMA and incubated for 30 min at 37° C. in 5% CO2. After washing the cells with serum-free medium to remove PMA, the cells, stimulated or non-stimulated by PMA, were incubated in the same volume of 1% FCS-contained RPMI-1640 without PMA for 2 and 4 hours each at 37° C. in 5% CO2.

MRC-5 = experiment: as above; assay type: cell-based, human; conditions: MRC-5, 10^−6 M PMA
Description: (§4) THP-1 (a human monocytic leukemia cell line), U-937 (a human histiocytic lymphoma cell line), HL-60 (a human promyelocytic leukemia cell line), Raji (a human Burkitt lymphoma cell line) and K-562 (a human myelogenous leukemia cell line), which grow in suspension, and ME-180 (a human epidermoid carcinoma cell line) and MRC-5 (a human lung fibroblast cell line), which grow adherently, were purchased from American Type Culture Collection (Rockville, Md.). These cell lines were passed twice a week in RPMI-1640/10% heat-inactivated FCS.
as §3

K-562 = experiment: as above; assay type: cell-based, human; conditions: K-562, 10^−6 M PMA
Description: as §4, §3

ME-180 = experiment: as above; assay type: cell-based, human; conditions: ME-180, 10^−6 M PMA
Description: as §4, §3

Raji = experiment: as above; assay type: cell-based, human; conditions: 10^−6 M PMA
Description: as §4, §3

U-937 = experiment: as above; assay type: cell-based, human; conditions: U-937, 10^−6 M PMA
Description: as §4, §3

HL-60 = experiment: as above; assay type: cell-based, human; conditions: HL-60, 10^−6 M PMA
Description: as §4, §3

[4] = system: human peripheral blood monocytes; experiment: as above; assay type: cell-based; conditions: for TRRE Activity (U): Human Monocyte
Method: as §1
Mononuclear cells were harvested at the interface of an isotonic Ficoll cushion (specific gravity, 1.05) from a Leukopac obtained from normal healthy volunteers according to the manufacturer's instructions (Sigma). Then monocytes were isolated by counterflow centrifugal elutriation with a Beckman JE-5.0 system. On average, the purity of the monocyte fraction was over 95%, as judged by morphologic examination and nonspecific esterase staining, and viability was over 98% as assessed by the trypan blue dye exclusion test.
as §2

TNF [5] = conditions: Shohami et al. (1997); cited from earlier work
[6] = Bauditz et al. (1997); cited from earlier work
[7] = system: soluble p75 and p55 TNF-R; conditions: Crowe et al. (1995); Mullberg et al. (1995); cited from earlier work

## CNC(=O)[C@H](Cc1c[nH]c2ccccc12)NC(=O)[C@@H](CC(=O)NO)CC(C)C [GM-6001]
TNF [1]
  release of TNF: prevents the release of TNF

## CCCCCCCCCCCCCC(=O)O[C@@H]1[C@@H](C)[C@@]2(O)[C@@H](C=C(CO)C[C@]3(O)C(=O)C(C)=C[C@@H]23)[C@@H]2C(C)(C)[C@]12OC(C)=O [PMA, phorbol 12-myristate 13-acetate]
THP-1 cells [2]; PMA-stimulated THP-1, 0% FCS
  TRRE produced (FIG. 10A): 217 U/ml
THP-1 cells [2]; then 2 hours PMA-free with 0% FCS
  TRRE Activity (U/ml): 224 U/ml
THP-1 cells [2]; then 2 hours PMA-free with 10% FCS
  TRRE Activity (U/ml): 2,275 U/ml
THP-1 cells [2]; THP-1, 10^−8 M PMA
  TRRE induction: did not induce any TRRE
THP-1 cells [2]; THP-1, PMA 10^−7 M
  TRRE Activity (U): 368 U
THP-1 cells [3]; PMA-stimulated THP-1, 1% FCS
  TRRE produced (FIG. 10A): 2,096 U/ml
THP-1 cells [3]; THP-1, 10^−6 M PMA
  TRRE (U/ml/10^6 cells): 2,884 U/ml/10^6 cells
THP-1 cells [3]; THP-1, 10^−6 M PMA 30 min, then 2 hours PMA-free
  TRRE release: 1,304 U/ml
THP-1 cells [3]; THP-1, 10^−6 M PMA 30 min, then 2 hours PMA-free with 1% FCS
  TRRE Activity (U/ml): 1,356 U/ml
THP-1 cells [3]; THP-1, PMA 10^−6 M
  TRRE Activity (U): 1,304 U
THP-1 cells [3]; THP-1, after first PMA stimulation, no second PMA, 2 hours and 4 hours
  TRRE released: no TRRE activity
THP-1 cells [3]; THP-1, first stimulation of PMA
  TRRE released: 951 U/ml
THP-1 cells [3]; THP-1, second PMA stimulation 30 min, additional 2 hours PMA-free
  TRRE released: 1,245 U/ml
THP-1 cells [3]; THP-1, second PMA stimulation 30 min, additional 4 hours PMA-free
  TRRE released: 1,044 U/ml
MRC-5
  TRRE (U/ml/10^6 cells): 1,477 U/ml/10^6 cells
K-562
  TRRE (U/ml/10^6 cells): 3,356 U/ml/10^6 cells
ME-180
  TRRE (U/ml/10^6 cells): 1,694 U/ml/10^6 cells
Raji
  TRRE (U/ml/10^6 cells): 2,390 U/ml/10^6 cells
U-937
  TRRE (U/ml/10^6 cells): 3,288 U/ml/10^6 cells
HL-60
  TRRE (U/ml/10^6 cells): 3,144 U/ml/10^6 cells
[4]; PMA 10^−6 M
  TRRE Activity (U): 883 U
[4]; PMA 10^−7 M
  TRRE Activity (U): 51 U
[4]; human monocytes, 10^−6 M PMA 30 min, then 2 hours PMA-free
  TRRE release: 883 U/ml
[4]; monocytes, 10^−8 M PMA
  TRRE induction: did not induce any TRRE

## CCCCCCC(C)(C)c1cc(O)c2c(c1)OC(C)(C)[C@H]1CC=C(CO)C[C@H]21 [dexanabinol]
TNF [5]
  protection against TNF following traumatic brain injury: provided protection

## CC(=O)CCCCn1c(=O)c2c(ncn2C)n(C)c1=O [oxpentifylline]
[6]
  course of Crohn's disease: did not alter the course

## TAPI
[7]
  shedding of soluble p75 and p55 TNF-R: blocks the shedding

From patent US6858402B2 (The Regents of the University of California, priority 1996, dated 2005)
